In patent US10844077B2, “Thiazolyl-containing compounds for treating proliferative diseases” (Dana-Farber Cancer Institute, Inc., priority 2014, dated 2020):
Where two headings read alike, the source gives them in different places.

How the values were obtained:
Assay type in all cases: binding
broad panel of kinases [1] = target: broad panel of kinases (Homo sapiens, UniProt O00329); conditions: PIK3CD; 1 μM
broad panel of kinases [2] = target: broad panel of kinases (Homo sapiens, UniProt O14730); conditions: RIOK3; 1 μM
broad panel of kinases [3] = target: broad panel of kinases (Homo sapiens, UniProt O15075); conditions: DCAMKL1; 1 μM
broad panel of kinases [4] = target: broad panel of kinases (Homo sapiens, UniProt O15197); conditions: EPHB6; 1 μM
broad panel of kinases (Homo sapiens, UniProt O15197), sequence (O15197 32-1021 limits assumed): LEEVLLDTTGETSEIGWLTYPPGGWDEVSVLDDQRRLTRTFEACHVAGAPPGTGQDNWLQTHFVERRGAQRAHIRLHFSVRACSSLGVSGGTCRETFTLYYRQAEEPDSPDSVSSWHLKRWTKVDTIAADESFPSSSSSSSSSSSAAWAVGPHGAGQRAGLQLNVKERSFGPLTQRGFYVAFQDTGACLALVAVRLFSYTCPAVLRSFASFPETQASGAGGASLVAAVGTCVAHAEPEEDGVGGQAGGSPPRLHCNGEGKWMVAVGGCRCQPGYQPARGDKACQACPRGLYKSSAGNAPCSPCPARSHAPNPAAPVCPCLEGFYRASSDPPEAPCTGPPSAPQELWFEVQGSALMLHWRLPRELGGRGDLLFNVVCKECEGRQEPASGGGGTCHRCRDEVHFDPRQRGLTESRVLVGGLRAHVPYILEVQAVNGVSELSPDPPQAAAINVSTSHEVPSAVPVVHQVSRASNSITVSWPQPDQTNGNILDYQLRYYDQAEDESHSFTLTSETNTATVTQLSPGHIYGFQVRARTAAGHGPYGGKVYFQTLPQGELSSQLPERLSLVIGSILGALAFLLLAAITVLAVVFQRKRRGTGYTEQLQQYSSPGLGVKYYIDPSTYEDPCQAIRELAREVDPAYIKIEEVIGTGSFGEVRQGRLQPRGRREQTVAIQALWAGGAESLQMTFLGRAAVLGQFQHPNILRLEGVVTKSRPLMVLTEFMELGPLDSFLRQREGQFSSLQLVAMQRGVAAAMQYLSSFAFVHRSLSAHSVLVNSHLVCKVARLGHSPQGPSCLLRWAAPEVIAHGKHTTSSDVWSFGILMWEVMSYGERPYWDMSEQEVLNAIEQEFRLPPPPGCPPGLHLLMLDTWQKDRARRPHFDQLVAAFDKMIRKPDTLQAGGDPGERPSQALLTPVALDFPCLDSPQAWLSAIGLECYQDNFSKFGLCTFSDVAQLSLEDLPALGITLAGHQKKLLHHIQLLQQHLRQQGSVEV

broad panel of kinases [5] = target: broad panel of kinases (Homo sapiens, UniProt O75116); conditions: ROCK2; 1 μM
broad panel of kinases [6] = target: broad panel of kinases (Homo sapiens, UniProt O75582); conditions: 1 μM
broad panel of kinases [7] = target: broad panel of kinases (Homo sapiens, UniProt O94806); conditions: PRKD3; 1 μM
broad panel of kinases [8] = target: broad panel of kinases (Homo sapiens, UniProt O95835); conditions: LATS1; 1 μM
broad panel of kinases [9] = target: broad panel of kinases (Homo sapiens, UniProt P00519, E255K); conditions: ABL1(E255K)-phosphorylated; 1 μM
broad panel of kinases [10] = target: broad panel of kinases (Homo sapiens, UniProt P00519, T315I); conditions: 1 μM
broad panel of kinases [11] = target: broad panel of kinases (Homo sapiens, UniProt P08581); conditions: MET; 1 μM
broad panel of kinases [12] = target: broad panel of kinases (Homo sapiens, UniProt P08581, Y1235D); conditions: MET(Y1235D); 1 μM
broad panel of kinases (Homo sapiens, UniProt P08581, Y1235D), sequence (P08581 25-1390 Y1235D limits assumed): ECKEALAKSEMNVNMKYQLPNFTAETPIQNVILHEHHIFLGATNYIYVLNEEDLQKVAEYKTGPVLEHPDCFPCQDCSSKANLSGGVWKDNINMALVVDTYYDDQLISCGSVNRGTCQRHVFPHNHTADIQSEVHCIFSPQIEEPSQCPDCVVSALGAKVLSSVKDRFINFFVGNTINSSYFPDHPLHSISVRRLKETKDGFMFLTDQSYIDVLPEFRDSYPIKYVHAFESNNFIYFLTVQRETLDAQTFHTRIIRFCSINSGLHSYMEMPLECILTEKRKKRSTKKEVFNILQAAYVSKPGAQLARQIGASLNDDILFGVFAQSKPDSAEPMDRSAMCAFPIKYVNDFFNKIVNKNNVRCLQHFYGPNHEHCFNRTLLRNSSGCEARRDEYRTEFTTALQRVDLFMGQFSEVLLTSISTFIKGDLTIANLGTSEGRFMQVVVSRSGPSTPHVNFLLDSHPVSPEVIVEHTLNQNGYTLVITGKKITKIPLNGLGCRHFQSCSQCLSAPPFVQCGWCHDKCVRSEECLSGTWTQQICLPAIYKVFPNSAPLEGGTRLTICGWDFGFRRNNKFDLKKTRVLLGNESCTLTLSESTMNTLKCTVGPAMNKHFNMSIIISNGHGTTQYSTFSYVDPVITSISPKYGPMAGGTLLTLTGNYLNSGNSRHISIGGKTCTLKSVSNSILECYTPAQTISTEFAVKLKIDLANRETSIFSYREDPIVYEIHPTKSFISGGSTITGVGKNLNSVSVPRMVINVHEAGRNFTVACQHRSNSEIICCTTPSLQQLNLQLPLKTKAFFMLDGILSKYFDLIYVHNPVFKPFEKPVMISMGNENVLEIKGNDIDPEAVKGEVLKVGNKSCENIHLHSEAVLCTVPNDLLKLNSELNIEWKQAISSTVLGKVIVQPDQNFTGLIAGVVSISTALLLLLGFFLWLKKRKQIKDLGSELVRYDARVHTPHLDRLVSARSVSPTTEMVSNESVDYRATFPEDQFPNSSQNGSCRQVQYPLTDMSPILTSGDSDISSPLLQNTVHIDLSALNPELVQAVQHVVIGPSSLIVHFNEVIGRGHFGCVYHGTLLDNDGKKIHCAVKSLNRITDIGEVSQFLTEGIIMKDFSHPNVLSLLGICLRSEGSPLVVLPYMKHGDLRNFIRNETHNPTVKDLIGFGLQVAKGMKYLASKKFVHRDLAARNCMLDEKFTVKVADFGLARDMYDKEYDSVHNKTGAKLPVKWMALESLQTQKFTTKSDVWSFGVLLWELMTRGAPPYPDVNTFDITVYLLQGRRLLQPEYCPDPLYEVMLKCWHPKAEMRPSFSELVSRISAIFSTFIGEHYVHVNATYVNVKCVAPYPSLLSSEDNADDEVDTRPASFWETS

broad panel of kinases [13] = target: broad panel of kinases (Homo sapiens, UniProt P10721, A829P); conditions: KIT(A829P); 1 μM
broad panel of kinases [14] = target: broad panel of kinases (Homo sapiens, UniProt P16591); conditions: FER; 1 μM
broad panel of kinases [15] = target: broad panel of kinases (Homo sapiens, UniProt P22607, G697C); conditions: FGFR3(G697C); 1 μM
broad panel of kinases (Homo sapiens, UniProt P22607, G697C), sequence (P22607 23-806 G697C limits assumed): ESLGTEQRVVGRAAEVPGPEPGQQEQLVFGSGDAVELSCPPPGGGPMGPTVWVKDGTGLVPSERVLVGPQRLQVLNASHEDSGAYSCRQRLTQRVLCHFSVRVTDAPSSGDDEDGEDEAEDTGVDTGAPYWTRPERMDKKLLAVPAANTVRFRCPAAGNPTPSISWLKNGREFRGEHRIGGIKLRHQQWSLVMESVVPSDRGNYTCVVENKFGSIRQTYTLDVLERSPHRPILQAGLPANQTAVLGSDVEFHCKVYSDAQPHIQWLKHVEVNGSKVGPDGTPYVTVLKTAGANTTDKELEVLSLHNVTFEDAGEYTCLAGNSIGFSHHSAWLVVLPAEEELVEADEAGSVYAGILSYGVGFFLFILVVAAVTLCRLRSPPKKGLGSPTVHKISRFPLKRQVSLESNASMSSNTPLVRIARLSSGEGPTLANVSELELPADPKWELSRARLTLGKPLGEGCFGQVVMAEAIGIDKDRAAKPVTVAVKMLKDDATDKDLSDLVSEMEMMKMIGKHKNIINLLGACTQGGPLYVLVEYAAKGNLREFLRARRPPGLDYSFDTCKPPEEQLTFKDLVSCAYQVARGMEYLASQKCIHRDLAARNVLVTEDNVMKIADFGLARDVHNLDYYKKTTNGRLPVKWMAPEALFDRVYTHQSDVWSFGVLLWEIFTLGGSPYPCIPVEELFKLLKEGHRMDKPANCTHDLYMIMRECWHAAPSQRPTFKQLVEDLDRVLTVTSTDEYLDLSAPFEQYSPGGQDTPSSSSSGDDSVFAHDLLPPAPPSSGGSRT

broad panel of kinases [16] = target: broad panel of kinases (Homo sapiens, UniProt P29320); conditions: EPHA3; 1 μM
broad panel of kinases (Homo sapiens, UniProt P29320), sequence (P29320 21-983 limits assumed): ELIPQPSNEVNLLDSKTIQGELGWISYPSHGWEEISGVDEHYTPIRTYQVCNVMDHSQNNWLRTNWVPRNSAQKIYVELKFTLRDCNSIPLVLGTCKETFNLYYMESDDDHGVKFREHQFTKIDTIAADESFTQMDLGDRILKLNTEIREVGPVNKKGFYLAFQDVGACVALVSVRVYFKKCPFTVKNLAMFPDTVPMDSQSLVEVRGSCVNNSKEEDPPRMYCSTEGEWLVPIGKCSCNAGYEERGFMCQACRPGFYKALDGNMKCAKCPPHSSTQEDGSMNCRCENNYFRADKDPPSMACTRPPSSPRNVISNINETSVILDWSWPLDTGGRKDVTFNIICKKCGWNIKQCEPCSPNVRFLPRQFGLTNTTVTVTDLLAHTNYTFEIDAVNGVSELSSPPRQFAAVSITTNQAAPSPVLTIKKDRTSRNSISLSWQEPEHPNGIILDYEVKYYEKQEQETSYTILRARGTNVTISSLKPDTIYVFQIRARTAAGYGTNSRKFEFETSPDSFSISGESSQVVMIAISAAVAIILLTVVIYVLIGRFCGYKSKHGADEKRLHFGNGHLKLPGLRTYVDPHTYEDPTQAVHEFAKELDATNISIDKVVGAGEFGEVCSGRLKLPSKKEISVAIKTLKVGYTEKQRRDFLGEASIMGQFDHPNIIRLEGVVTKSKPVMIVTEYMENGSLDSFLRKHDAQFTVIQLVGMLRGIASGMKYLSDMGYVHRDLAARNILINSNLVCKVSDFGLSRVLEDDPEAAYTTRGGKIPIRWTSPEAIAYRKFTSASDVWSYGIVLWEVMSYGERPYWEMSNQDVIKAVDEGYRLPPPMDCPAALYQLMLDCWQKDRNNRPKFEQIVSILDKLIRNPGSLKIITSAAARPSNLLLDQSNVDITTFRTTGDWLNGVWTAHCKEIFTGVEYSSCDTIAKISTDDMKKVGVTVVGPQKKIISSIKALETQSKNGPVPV

broad panel of kinases [17] = target: broad panel of kinases (Homo sapiens, UniProt P42684); conditions: ABL2; 1 μM
broad panel of kinases [18] = target: broad panel of kinases (Homo sapiens, UniProt P45984); conditions: JNK2; 1 μM
broad panel of kinases [19] = target: broad panel of kinases (Homo sapiens, UniProt P51813); conditions: BMX; 1 μM
broad panel of kinases [20] = target: broad panel of kinases (Homo sapiens, UniProt P53667); conditions: LIMK1; 1 μM
broad panel of kinases [21] = target: broad panel of kinases (Homo sapiens, UniProt P54762); conditions: EPHB1; 1 μM
broad panel of kinases [22] = target: broad panel of kinases (Homo sapiens, UniProt Q15375); conditions: EPHA7; 1 μM
broad panel of kinases [23] = target: broad panel of kinases (Homo sapiens, UniProt Q15746); conditions: MYLK; 1 μM
broad panel of kinases [24] = target: broad panel of kinases (Homo sapiens, UniProt Q16620); conditions: TRKB; 1 μM
broad panel of kinases (Homo sapiens, UniProt Q16620), sequence (Q16620 32-822 limits assumed): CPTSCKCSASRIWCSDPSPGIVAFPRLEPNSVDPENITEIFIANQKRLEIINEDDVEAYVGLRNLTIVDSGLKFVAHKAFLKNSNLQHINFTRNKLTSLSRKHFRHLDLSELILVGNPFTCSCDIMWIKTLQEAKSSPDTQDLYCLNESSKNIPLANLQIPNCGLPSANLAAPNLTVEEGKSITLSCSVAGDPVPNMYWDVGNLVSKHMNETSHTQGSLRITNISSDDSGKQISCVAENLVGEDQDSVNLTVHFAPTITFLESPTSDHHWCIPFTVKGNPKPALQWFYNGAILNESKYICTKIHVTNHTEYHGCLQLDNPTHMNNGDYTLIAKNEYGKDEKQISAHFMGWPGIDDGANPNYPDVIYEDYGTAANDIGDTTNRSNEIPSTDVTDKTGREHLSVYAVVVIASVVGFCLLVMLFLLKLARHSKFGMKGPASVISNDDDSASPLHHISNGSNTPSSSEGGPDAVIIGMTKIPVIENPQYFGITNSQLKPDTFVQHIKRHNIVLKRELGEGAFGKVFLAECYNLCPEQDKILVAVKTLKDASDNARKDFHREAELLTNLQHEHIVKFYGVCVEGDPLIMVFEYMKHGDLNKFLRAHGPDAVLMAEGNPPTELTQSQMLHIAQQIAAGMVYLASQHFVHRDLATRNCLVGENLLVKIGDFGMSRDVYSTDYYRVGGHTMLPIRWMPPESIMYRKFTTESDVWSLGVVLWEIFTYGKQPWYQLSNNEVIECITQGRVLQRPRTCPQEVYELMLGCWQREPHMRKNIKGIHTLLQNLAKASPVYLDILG

broad panel of kinases [25] = target: broad panel of kinases (Homo sapiens, UniProt Q6PHR2); conditions: ULK3; 1 μM
broad panel of kinases [26] = target: broad panel of kinases (Homo sapiens, UniProt Q8TF76); conditions: HASPIN; 1 μM
broad panel of kinases [27] = target: broad panel of kinases (Homo sapiens, UniProt Q96RR4); conditions: CAMKK2; 1 μM
broad panel of kinases [28] = target: broad panel of kinases (Homo sapiens, UniProt Q96SB4); conditions: SRPK1; 1 μM
broad panel of kinases [29] = target: broad panel of kinases (Homo sapiens, UniProt Q9H093); conditions: SNARK; 1 μM
broad panel of kinases [30] = target: broad panel of kinases (Homo sapiens, UniProt Q9H1R3); conditions: MYLK2; 1 μM
broad panel of kinases [31] = target: broad panel of kinases (Homo sapiens, UniProt Q9H2K8); conditions: TAOK3; 1 μM
broad panel of kinases [32] = target: broad panel of kinases (Homo sapiens, UniProt Q9NRH2); conditions: SNRK; 1 μM
broad panel of kinases [33] = target: broad panel of kinases (Homo sapiens, UniProt Q9Y2K2); conditions: QSK; 1 μM
broad panel of kinases [34] = target: broad panel of kinases (Homo sapiens, UniProt Q9Y2U5); conditions: MAP3K2; 1 μM
broad panel of kinases [35] = target: broad panel of kinases (Homo sapiens, UniProt Q9Y616); conditions: IRAK3; 1 μM
broad panel of kinases [36] = target: broad panel of kinases (Plasmodium falciparum, UniProt P62344)

## C=CC(=O)N1CC[C@H](Nc2nccc(Nc3ncc(C(=O)Nc4c(C)cccc4C)s3)n2)C1 [Example I-3]
Broad panel of kinases [1]
  percent of control binding remaining (lower = stronger binding): 85%
Broad panel of kinases [2]
  percent of control binding remaining (lower = stronger binding): 90%
Broad panel of kinases [3]
  percent of control binding remaining (lower = stronger binding): 84%
Broad panel of kinases [4]
  percent of control binding remaining (lower = stronger binding): 4.6%
Broad panel of kinases [5]
  percent of control binding remaining (lower = stronger binding): 75%
Broad panel of kinases [6]; RPS6KA5(Kin.Dom.1-N-terminal)
  percent of control binding remaining (lower = stronger binding): 88%
Broad panel of kinases [6]; RPS6KA5(Kin.Dom.2-C-terminal)
  percent of control binding remaining (lower = stronger binding): 52%
Broad panel of kinases [7]
  percent of control binding remaining (lower = stronger binding): 81%
Broad panel of kinases [8]
  percent of control binding remaining (lower = stronger binding): 93%
Broad panel of kinases [9]
  % change compared to control: 0.5%
Broad panel of kinases [10]; ABL1(T315I)-nonphosphorylated
  % change compared to control: 100%
Broad panel of kinases [10]; ABL1(T315I)-phosphorylated
  % change compared to control: 70%
Broad panel of kinases [11]
  percent of control binding remaining (lower = stronger binding): 94%
Broad panel of kinases [12]
  percent of control binding remaining (lower = stronger binding): 92%
Broad panel of kinases [13]
  percent of control binding remaining (lower = stronger binding): 10%
Broad panel of kinases [14]
  percent of control binding remaining (lower = stronger binding): 99%
Broad panel of kinases [15]
  % change compared to control: 99%
Broad panel of kinases [16]
  percent of control binding remaining (lower = stronger binding): 49%
Broad panel of kinases [17]
  percent of control binding remaining (lower = stronger binding): 0.25%
Broad panel of kinases [18]
  percent of control binding remaining (lower = stronger binding): 90%
Broad panel of kinases [19]
  percent of control binding remaining (lower = stronger binding): 4.9%
Broad panel of kinases [20]
  percent of control binding remaining (lower = stronger binding): 25%
Broad panel of kinases [21]
  percent of control binding remaining (lower = stronger binding): 0.2%
Broad panel of kinases [22]
  percent of control binding remaining (lower = stronger binding): 100%
Broad panel of kinases [23]
  percent of control binding remaining (lower = stronger binding): 93%
Broad panel of kinases [24]
  percent of control binding remaining (lower = stronger binding): 92%
Broad panel of kinases [25]
  percent of control binding remaining (lower = stronger binding): 98%
Broad panel of kinases [26]
  percent of control binding remaining (lower = stronger binding): 88%
Broad panel of kinases [27]
  percent of control binding remaining (lower = stronger binding): 100%
Broad panel of kinases [28]
  percent of control binding remaining (lower = stronger binding): 96%
Broad panel of kinases [29]
  percent of control binding remaining (lower = stronger binding): 100%
Broad panel of kinases [30]
  percent of control binding remaining (lower = stronger binding): 100%
Broad panel of kinases [31]
  percent of control binding remaining (lower = stronger binding): 91%
Broad panel of kinases [32]
  percent of control binding remaining (lower = stronger binding): 92%
Broad panel of kinases [33]
  percent of control binding remaining (lower = stronger binding): 50%
Broad panel of kinases [34]
  percent of control binding remaining (lower = stronger binding): 98%
Broad panel of kinases [35]
  percent of control binding remaining (lower = stronger binding): 93%
Broad panel of kinases [36]
  % change compared to control: 8.1%

## C=CC(=O)N1CC[C@H](Nc2nc(CN3CCOCC3)cc(Nc3ncc(C(=O)Nc4c(C)cccc4C)s3)n2)C1 [Example I-2]
Broad panel of kinases [1]
  percent of control binding remaining (lower = stronger binding): 79%
Broad panel of kinases [2]
  percent of control binding remaining (lower = stronger binding): 98%
Broad panel of kinases [3]
  percent of control binding remaining (lower = stronger binding): 87%
Broad panel of kinases [4]
  percent of control binding remaining (lower = stronger binding): 7.7%
Broad panel of kinases [5]
  percent of control binding remaining (lower = stronger binding): 95%
Broad panel of kinases [6]; RPS6KA5(Kin.Dom.1-N-terminal)
  percent of control binding remaining (lower = stronger binding): 98%
Broad panel of kinases [6]; RPS6KA5(Kin.Dom.2-C-terminal)
  percent of control binding remaining (lower = stronger binding): 94%
Broad panel of kinases [7]
  percent of control binding remaining (lower = stronger binding): 81%
Broad panel of kinases [8]
  percent of control binding remaining (lower = stronger binding): 100%
Broad panel of kinases [9]
  percent of control binding remaining (lower = stronger binding): 0.45%
Broad panel of kinases [10]; ABL1(T315I)-nonphosphorylated
  percent of control binding remaining (lower = stronger binding): 95%
Broad panel of kinases [10]; ABL1(T315I)-phosphorylated
  percent of control binding remaining (lower = stronger binding): 69%
Broad panel of kinases [11]
  percent of control binding remaining (lower = stronger binding): 97%
Broad panel of kinases [12]
  percent of control binding remaining (lower = stronger binding): 95%
Broad panel of kinases [13]
  percent of control binding remaining (lower = stronger binding): 5.8%
Broad panel of kinases [14]
  percent of control binding remaining (lower = stronger binding): 100%
Broad panel of kinases [15]
  percent of control binding remaining (lower = stronger binding): 100%
Broad panel of kinases [16]
  percent of control binding remaining (lower = stronger binding): 47%
Broad panel of kinases [17]
  percent of control binding remaining (lower = stronger binding): 0.3%
Broad panel of kinases [18]
  percent of control binding remaining (lower = stronger binding): 100%
Broad panel of kinases [19]
  percent of control binding remaining (lower = stronger binding): 3.6%
Broad panel of kinases [20]
  percent of control binding remaining (lower = stronger binding): 52%
Broad panel of kinases [21]
  percent of control binding remaining (lower = stronger binding): 0.35%
Broad panel of kinases [22]
  percent of control binding remaining (lower = stronger binding): 100%
Broad panel of kinases [23]
  percent of control binding remaining (lower = stronger binding): 85%
Broad panel of kinases [24]
  percent of control binding remaining (lower = stronger binding): 94%
Broad panel of kinases [25]
  percent of control binding remaining (lower = stronger binding): 97%
Broad panel of kinases [26]
  percent of control binding remaining (lower = stronger binding): 100%
Broad panel of kinases [27]
  percent of control binding remaining (lower = stronger binding): 97%
Broad panel of kinases [28]
  percent of control binding remaining (lower = stronger binding): 91%
Broad panel of kinases [29]
  percent of control binding remaining (lower = stronger binding): 100%
Broad panel of kinases [30]
  percent of control binding remaining (lower = stronger binding): 100%
Broad panel of kinases [31]
  percent of control binding remaining (lower = stronger binding): 81%
Broad panel of kinases [32]
  percent of control binding remaining (lower = stronger binding): 100%
Broad panel of kinases [33]
  percent of control binding remaining (lower = stronger binding): 36%
Broad panel of kinases [34]
  percent of control binding remaining (lower = stronger binding): 96%
Broad panel of kinases [35]
  percent of control binding remaining (lower = stronger binding): 93%
Broad panel of kinases [36]
  % change compared to control: 24%
